Biological target: PAN endonuclease (Influenza A virus, UniProt C3W5S0)
Experiment: FRET-based enzymatic assay of PAN endonuclease inhibition
Assay type: biochemical

Compound | enzymatic inhibition upon light irradiation | IC50 (read-out: IC50 (dark))
[Ru(2,2´-bipyridine)2(pyridine)2][Cl]2 [Compound 9] | negligible | 
[Cl][Ru][Cl].c1ccc(-c2ccccn2)nc1.c1ccc(-c2ccccn2)nc1 [Compound 2, Ru(2,2´-bipyridine)2(Cl)2] |  | > 100 µM
